Results on nine compounds are retold here after patent publication US7524964B2, “Tetrahydrothiopyrano pyrazole cannabinoid modulators” (Janssen Pharmaceutica NV, priority 2005, dated 2009).

Read-outs that look alike come from different tables or passages of the source.

In one assay the target is human CB1 receptor (Homo sapiens, UniProt P21554). The experiment in a line: Binding assay, cannabinoid CB1 receptor ([3H]-CP-55,940 displacement). Set-up: expressed in transfected cells; host or cells: SK-N-MC cells, pcDNA3 CB-1 (human), semi-purified membranes. Particulars: for inhibition at 0.2 µM: test concentration 0.2 μM (superscript a), read-out: CB1 binding percent inhibition. In a few lines:
(§1)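 Displacement of 0.2 nM [3H]-CP-55,940 (non-specific: 10 uM WIN 55,212) was run on semi-purified membranes of transfected SK-N-MC cells carrying human CB-1 or CB-2, 90 min, 30° C, pH 7.5. Scintillation counting; IC50 by linear regression, else % inhibition at 0.2, 1 or 10 μM.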

A further assay deals with T1, human CB-2 receptor (Homo sapiens, UniProt P34972).
T1 construct: expressed in transfected cells; host or cells: SK-N-MC cells, pcDNA3 CB-2 (human), semi-purified membranes
T1 sequence (P34972 whole entry): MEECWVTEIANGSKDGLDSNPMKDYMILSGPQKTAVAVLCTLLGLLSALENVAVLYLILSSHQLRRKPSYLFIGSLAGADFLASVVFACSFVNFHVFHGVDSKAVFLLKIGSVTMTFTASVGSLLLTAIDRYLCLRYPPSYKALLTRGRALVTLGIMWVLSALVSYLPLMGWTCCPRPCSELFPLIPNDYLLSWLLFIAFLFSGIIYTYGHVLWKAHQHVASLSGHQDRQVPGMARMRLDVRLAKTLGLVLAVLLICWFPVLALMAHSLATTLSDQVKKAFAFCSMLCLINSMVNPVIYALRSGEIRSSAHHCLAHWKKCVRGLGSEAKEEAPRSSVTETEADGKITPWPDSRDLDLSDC
The experiment in a line: Binding assay, cannabinoid CB2 receptor ([3H]-CP-55,940 displacement). Particulars: read-out: CB2 binding percent inhibition. In outline:
as §1

The mark [1] stands for this setting: test concentration 0.2 μM (superscript a).

As usually defined, the IC50 is the concentration that inhibits the measured activity by half. Read a high IC50 as weaker potency. By inhibition is commonly meant how much of the control response was suppressed.

Sequence of human CB1 receptor (P21554 whole entry): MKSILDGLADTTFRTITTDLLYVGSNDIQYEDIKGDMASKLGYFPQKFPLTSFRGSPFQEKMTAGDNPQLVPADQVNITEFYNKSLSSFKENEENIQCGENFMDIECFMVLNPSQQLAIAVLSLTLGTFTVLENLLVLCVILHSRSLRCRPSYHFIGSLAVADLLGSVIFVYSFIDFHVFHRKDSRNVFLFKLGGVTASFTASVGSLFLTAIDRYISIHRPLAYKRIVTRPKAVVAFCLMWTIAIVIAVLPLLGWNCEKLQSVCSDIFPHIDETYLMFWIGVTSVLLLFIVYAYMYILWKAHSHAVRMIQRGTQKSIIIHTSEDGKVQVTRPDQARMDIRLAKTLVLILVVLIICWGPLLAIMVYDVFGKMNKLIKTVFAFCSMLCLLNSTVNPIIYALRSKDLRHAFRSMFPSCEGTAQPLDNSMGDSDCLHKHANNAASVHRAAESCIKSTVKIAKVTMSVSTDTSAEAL

Regarding `O=C(NN1CCCCC1)c1nn(-c2ccc(Cl)cc2Cl)c2c1CS(=O)(=O)C/C2=C\c1ccc(F)cc1` [Cpd 81, (7Z)-1-(2,4-dichloro-phenyl)-7-(4-fluoro-benzylidene)-5,5-dioxo-4,5,6,7-tetrahydro-1H-5λ^6-thiopyrano[4,3-c]pyrazole-3-carboxylic acid piperidin-1-ylamide], the IC50 on human CB1 receptor turned out to be 32 nM. Also, the inhibition at 0.2 µM on human CB-2 receptor (setting [1]) came to 24%.
In the case of `CC1CCCC(C)N1NC(=O)c1nn(-c2ccc(Cl)cc2Cl)c2c1CSC/C2=C\c1ccc(F)cc1` (stereo not drawn) [Cpd 111, (7Z)-1-(2,4-dichloro-phenyl)-7-(4-fluoro-benzylidene)-1,4,6,7-tetrahydro-thiopyrano[4,3-c]pyrazole-3-carboxylic acid (2,6-dimethyl-piperidin-1-yl)-amide], the IC50 at human CB1 receptor turned out to be 14 nM. Further, the inhibition at 0.2 µM at human CB-2 receptor (setting [1]) turned out to be 16%.
In the case of `C[C@@H](NC(=O)c1nn(-c2ccc(Cl)cc2Cl)c2c1CS(=O)(=O)CC2)c1ccccc1` [Cpd 128, 1-(2,4-dichloro-phenyl)-5,5-dioxo-4,5,6,7-tetrahydro-1H-5λ^6-thiopyrano[4,3-c]pyrazole-3-carboxylic acid [(1R)-1-phenyl-ethyl]-amide], the inhibition at 0.2 µM was 5% on human CB1 receptor and 10% on human CB-2 receptor (setting [1]).
The like results for `C[C@H](NS(=O)(=O)/C=C/c1nn(-c2ccc(F)cc2F)c2c1CSCC2Cc1cccc(F)c1)c1ccccc1` (stereo partly drawn) [Cpd 38, (E)-2-[1-(2,4-difluoro-phenyl)-7-(3-fluoro-benzyl)-1,4,6,7-tetrahydro-thiopyrano[4,3-c]pyrazol-3-yl]-ethenesulfonic acid [(1S)-1-phenyl-ethyl]-amide] were, in that order, 28% and 15%.
In turn, `O=C(N[C@H]1c2ccccc2C[C@H]1O)c1nn(-c2ccc(Cl)cc2Cl)c2c1CSC/C2=C\c1ccc(F)cc1` [Cpd 59, (7Z)-1-(2,4-dichloro-phenyl)-7-(4-fluoro-benzylidene)-1,4,6,7-tetrahydro-thiopyrano[4,3-c]pyrazole-3-carboxylic acid [(1S,2R)-2-hydroxy-indan-1-yl]-amide] yielded a half-inhibitory concentration (IC50) on human CB1 receptor of 42 nM. For the same compound, the inhibition at 0.2 µM on human CB-2 receptor is 25%.
On human CB1 receptor, `O=C(N[C@@H]1c2ccccc2C[C@@H]1O)c1nn(-c2ccc(Cl)cc2Cl)c2c1CS(=O)(=O)C/C2=C\c1ccc(F)cc1` [Cpd 69, (7Z)-1-(2,4-dichloro-phenyl)-7-(4-fluoro-benzylidene)-5,5-dioxo-4,5,6,7-tetrahydro-1H-5λ^6-thiopyrano[4,3-c]pyrazole-3-carboxylic acid [(1R,2S)-2-hydroxy-indan-1-yl]-amide] showed an IC50 of 23 nM. Besides, the inhibition at 0.2 µM on human CB-2 receptor (setting [1]) worked out at 10%.
`O=C(N[C@@H]1CCCC[C@H]1O)c1nn(-c2ccc(Cl)cc2Cl)c2c1CSC/C2=C\c1ccc(F)cc1` [Cpd 61, (7Z)-1-(2,4-dichloro-phenyl)-7-(4-fluoro-benzylidene)-1,4,6,7-tetrahydro-thiopyrano[4,3-c]pyrazole-3-carboxylic acid [(1R,2R)-2-hydroxy-cyclohexyl]-amide]: the figures for the inhibition at 0.2 µM at human CB1 receptor and at human CB-2 receptor (setting [1]) were 60% and 31%, respectively.
The matching figures for `O=C(NN1CC2CCCC2C1)c1c2c(nn1-c1ccc(Cl)cc1Cl)/C(=C/c1ccc(F)cc1)CSC2` (stereo not drawn) [Cpd 92, (7Z)-2-(2,4-dichloro-phenyl)-7-(4-fluoro-benzylidene)-2,4,6,7-tetrahydro-thiopyrano[4,3-c]pyrazole-3-carboxylic acid (hexahydro-cyclopenta[c]pyrrol-2-yl)-amide]: 47% and 8%.
For the compound `O=C(N[C@@H]1CCC[C@H]1O)c1nn(-c2ccc(Cl)cc2Cl)c2c1CS(=O)(=O)C/C2=C\c1ccc(F)cc1` [Cpd 67, (7Z)-1-(2,4-dichloro-phenyl)-7-(4-fluoro-benzylidene)-5,5-dioxo-4,5,6,7-tetrahydro-1H-5λ^6-thiopyrano[4,3-c]pyrazole-3-carboxylic acid [(1R,2R)-2-hydroxy-cyclopentyl]-amide], the inhibition at 0.2 µM at human CB1 receptor turned out to be 46%; at human CB-2 receptor (setting [1]), 15%.
